Source: patent US4992455A, “Thiazolidin-4-one derivatives useful for treating diseases caused by platelet activating factor” (Sumitomo Pharmaceuticals Company, Limited, priority 1987, dated 1991)
≈ marks a conversion by molar mass, not a printed value.

How the values were obtained:
[1] = test system: PAF-induced rabbit platelet aggregation; assay: Inhibition of PAF-induced rabbit platelet aggregation (in vitro, platelet-rich plasma); format: cell-based; conditions: Oryctolagus cuniculus, rabbit PRP, 37° C., final PAF concentration 0.005 μ1/ml [sic]
Description: (§1) The inhibition of PAF-induced platelet aggregation was examined by using a platelet-rich plasma (PRP) of rabbit according to the method of Mustard et al. [J.F. Mustard et al., J. Lab. Clin. Med., 64, 548 (1964)], which is an improvement of the method of Born [G.V.R. Born, J. Physiol., London, 162, 67 (1962)]. That is, 80-100 ml of blood per animal was collected from carotid arteries of male rabbits of the Japanese white breed without anesthesia into a polyethylene vessel containing 1/10 the volume of a 3.8% sodium citrate solution. A portion (about 3 ml) of the collected blood was centrifuged at a high speed (11,000 rpm) for 60 seconds, giving a platelet-poor plasma (PPP) as supernatant. The remainder of the blood was centrifuged at a low speed (1000 rpm) for 10 minutes, giving a platelet-rich plasma (PRP) as supernatant.
(§2) The degree of platelet aggregation was determined by nephelometry with an aggregometer (Hematracer, Niko Bioscience Co.) while stirring the PRP at 1000 rpm at 37° C. The platelet aggregation activity was expressed in terms of the light transmittance (%), the value of PRP being taken as 0% and the value of PPP as 100%. A portion (0.2 ml) of the PRP was placed in a glass cuvette containing a silicone-treated stirring iron rod, and 2 µl of dimethylsulfoxide was added. AFter 2 minutes, PAF dissolved in 0.25% BSA physiological saline was added to give a final PAF concentration of 0.005 μ1/ml, and the maximum aggregation was determined. To examine the inhibitory activity of test compounds on the platelet aggregation caused by PAF, 2 µl of a dimethylsulfoxide solution of each test compound was added in place of the dimethylsulfoxide. The percentage inhibition by the test compound of PAF-induced platelet aggregation was calculated according to the following equation and the value of IC50 was determined. [formula]

[2] = test system: PAF-induced human platelet aggregation; assay: Inhibition of PAF-induced human platelet aggregation (in vitro, human PRP); format: cell-based
Description: as §1, §2
The inhibition of PAF-induced platelet aggregation was tested by using human PRP. The test was conducted according to the procedure of the above case of rabbit, thereby evaluating the percentages inhibition and IC50 values of test compounds at final PAF concentrations of 0.3 μM and 1 μM.

[3] = test system: PAF-induced blood concentration; assay: Test in vivo for inhibition of PAF-induced blood concentration; conditions: guinea pigs, PAF iv 2 min later
Description: Guinea pigs under anesthesia with urethane (6.25 mg/kg injected into the abdominal cavities) were cannulated through carotid arteries and jugular veins. The carotid artery cannulae were used for blood sampling and the jugular vein cannulae for the intravenous injection of test compound and PAF.
Compound No. 27 was suspended in 10% Nikkol® liquid to a concentration of 3 mg/ml, and 1 ml/kg of the resulting suspension was administered through the jugular vein cannulae. Two minutes later, 1 ml/kg of a 0.1 μg/m1 PAF solution was administered through the jugular vein cannulae. Then, blood was sampled at times. The blood samples were each centrifuged at 11,000 rpm for 5 minutes and the hematocrit values were measured to determine the maximum increase (blood concentration) in hematocrit value.
For a control, 0.5% methyl cellulose solution was administered in place of compound No. 27.
The percentage inhibition of the PAF-induced blood concentration by compound No. 27 was calculated according to the following equation: [formula] The found percentage inhibition was 87%.

Row | IC50 [1] | SMILES | other results
1 | 2.5 µg/mL (≈ 11.2 µM) | CCC1SC(c2cccnc2)N(C)C1=O (centres unmarked) [compound 42] | 
2 | 1.9 µg/mL (≈ 7.19 µM) | CCCCCC1SC(c2cccnc2)N(C)C1=O (centres unmarked) [compound 46] | 
3 | 4.2 µg/mL (≈ 8.08 µM) | CN(C)CCN1C(=O)C(CCOCc2ccccc2)(CCOCc2ccccc2)SC1c1cccnc1 (centres unmarked) [compound 130] | 
4 | 4.2 µg/mL (≈ 18.9 µM) | CCN1C(=O)C(C)SC1c1cccnc1 (centres unmarked) [compound 30] | 
5 | 0.2 µg/mL (≈ 0.572 µM) | CCCCCCC[C@H]1S[C@@H](c2cccnc2)N(CCN(C)C)C1=O (relative stereo) [compound 76] | 
6 | 0.7 µg/mL (≈ 1.95 µM) | COc1ccc(CCN2C(=O)[C@@H](C)S[C@@H]2c2cccnc2)cc1OC (relative stereo) [compound 37] | 
7 | 1.6 µg/mL (≈ 5.71 µM) | CCOC(=O)CN1C(=O)[C@@H](C)S[C@H]1c1cccnc1 (relative stereo) [Compound No. 9, 3-ethoxycarbonylmethyl-5-methyl-2(3-pyridyl)thiazolidin-4-one] | 
8 | 2 µg/mL (≈ 7.99 µM) | CCCCC1SC(c2cccnc2)N(C)C1=O (centres unmarked) [compound 7, 5-butyl-3-methyl-2-(3-pyridyl)-thiazolidin-4-one] | 
9 | 0.14 µg/mL (≈ 0.385 µM) | CCCCCCCC[C@H]1S[C@@H](c2cccnc2)N(CCN(C)C)C1=O (relative stereo) [compound 78] | 
10 | 0.27 µg/mL (≈ 0.643 µM) | CCCCCCCCCCCC[C@H]1S[C@H](c2cccnc2)N(CCN(C)C)C1=O (relative stereo) [compound 83] | 
11 | 0.1 µg/mL (≈ 0.247 µM) | CCCCCCCCCCC[C@H]1S[C@H](c2cccnc2)N(CCN(C)C)C1=O (relative stereo) [compound 81] | 
12 | 1.4 µg/mL (≈ 5.03 µM) | CCCCCCC1SC(c2cccnc2)N(C)C1=O (centres unmarked) [compound 47] | 
13 | 0.6 µg/mL (≈ 1.48 µM) | CCCCCCCCCCC[C@H]1S[C@@H](c2cccnc2)N(CCN(C)C)C1=O (relative stereo) [compound 82] | 
14 | 2.4 µg/mL (≈ 7.49 µM) | CCCCCCCCC[C@H]1S[C@H](c2cccnc2)N(C)C1=O (relative stereo) [compound 49] | 
15 | 3 µg/mL (≈ 10.1 µM) | CC(=O)SCCN1C(=O)[C@@H](C)S[C@H]1c1cccnc1 (relative stereo) [Compound No. 18, 3-(2-Acetylthioethyl)-5-methyl-2(3-pyridyl)thiazolidin-4-one] | 
16 | 2.4 µg/mL (≈ 7.11 µM) | CC(C)OCCC1SC(c2cccnc2)N(CCN(C)C)C1=O (centres unmarked) [compound 154] | 
17 | 10 µg/mL (≈ 35.8 µM) | CN(C)CCN1C(=O)C(C)(C)SC1c1cccnc1 (centres unmarked) [compound 25, 5,5-dimethyl-3-(2-dimethylaminoethyl)2-(3-pyridyl)thiazolidin-4-one] | 
18 | 0.034 µg/mL (≈ 0.0935 µM) | CCCCCCCC[C@H]1S[C@H](c2cccnc2)N(CCN(C)C)C1=O (relative stereo) [compound 77] | 
19 | 1.2 µg/mL (≈ 5.08 µM) | CCCC1SC(c2cccnc2)N(C)C1=O (centres unmarked) [compound 43] | 
20 | 2 µg/mL (≈ 7.16 µM) | CCC1SC(c2cccnc2)N(CCN(C)C)C1=O (centres unmarked) [compound 24, 5-ethyl-3-(2-dimethylaminoethyl)-2-(3-pyridyl)thiazolidin-4-one] | 

Row | IC50 [1] | SMILES | other results
21 | 1.4 µg/mL (≈ 4.18 µM) | CCCCCCCCCCC1SC(c2cccnc2)N(C)C1=O (centres unmarked) [compound 51] | 
22 | 2.6 µg/mL (≈ 8.43 µM) | C[C@H]1S[C@H](c2cccnc2)N(CC(=O)OC(C)(C)C)C1=O (relative stereo) [Compound No. 15, 3-t-butyloxycarbonylmethyl-5-methyl-2-(3-pyridyl)thiazolidin-4-one] | 
23 |  | C#CCN1C(=O)[C@@H](C)S[C@@H]1c1cccnc1 (relative stereo) [compound 33] | IC50 ([2]; PAF concentration 0.3 μM): 5.5 µg/mL (≈ 23.7 µM)
24 | 0.45 µg/mL (≈ 1.53 µM) | CCC[C@H]1S[C@H](c2cccnc2)N(CCN(C)C)C1=O (relative stereo) [compound 67] | 
25 | 0.35 µg/mL (≈ 0.894 µM) | CCCCCCCCCC[C@H]1S[C@@H](c2cccnc2)N(CCN(C)C)C1=O (relative stereo) [compound 80] | 
26 | 0.05 µg/mL (≈ 0.128 µM) | CCCCCCCCCC[C@H]1S[C@H](c2cccnc2)N(CCN(C)C)C1=O (relative stereo) [compound 79] | 
27 | 4.2 µg/mL (≈ 15.8 µM) | C[C@H]1S[C@@H](c2cccnc2)N(CCN(C)C)C1=O (relative stereo) [compound 128] | 
28 | 0.15 µg/mL (≈ 0.379 µM) | CCCCOCCOCC[C@H]1S[C@H](c2cccnc2)N(CCN(C)C)C1=O (relative stereo) [compound 135] | 
29 | 0.14 µg/mL (≈ 0.363 µM) | CN(C)CCN1C(=O)[C@@H](CCOCc2ccccc2)S[C@@H]1c1cccnc1 (relative stereo) [compound 131] | 
30 | 0.24 µg/mL (≈ 0.781 µM) | CCCC[C@H]1S[C@H](c2cccnc2)N(CCN(C)C)C1=O (relative stereo) [compound 69] | 
31 | 0.19 µg/mL (≈ 0.563 µM) | CCOCCCC1SC(c2cccnc2)N(CCN(C)C)C1=O (centres unmarked) [compound 137] | 
32 | 5 µg/mL (≈ 24 µM) | C[C@@H]1S[C@@H](c2cccnc2)N(C)C1=O (single isomer, unassigned) [compound 181, (+)-trans-3,5-dimethyl-2-(3-pyridyl)-thiazolidin-4-one] | 
33 | 1.7 µg/mL (≈ 6.41 µM) | C[C@H]1S[C@H](c2cccnc2)N(CCN(C)C)C1=O (relative stereo) [compound 127] | 
34 | 4.2 µg/mL (≈ 12.6 µM) | CN(C)CCN1C(=O)C(CC(F)(F)F)SC1c1cccnc1 (centres unmarked) [compound 171] | 
35 | 0.32 µg/mL (≈ 0.995 µM) | CCCCC[C@H]1S[C@H](c2cccnc2)N(CCN(C)C)C1=O (relative stereo) [compound 71] | 
36 | 0.16 µg/mL (≈ 0.404 µM) | CC(C)COCCOCC[C@H]1S[C@H](c2cccnc2)N(CCN(C)C)C1=O (relative stereo) [compound 150] | 
37 | 3.6 µg/mL (≈ 16.2 µM) | CN1C(=O)C(C)(C)SC1c1cccnc1 (centres unmarked) [compound 8, 5,5,3-trimethyl-2-(3-pyridyl)-thiazolidin-4-one] | 
38 | 4.6 µg/mL (≈ 14.4 µM) | CCCCCCCCC[C@H]1S[C@@H](c2cccnc2)N(C)C1=O (relative stereo) [compound 50] | 
39 | 0.18 µg/mL (≈ 0.512 µM) | CCCCOCC[C@H]1S[C@H](c2cccnc2)N(CCN(C)C)C1=O (relative stereo) [compound 133] | 

Row | SMILES | IC50 [1] | other results
40 | CN(C)CCN1C(=O)[C@@H](CCCO[Si](C)(C)C(C)(C)C)S[C@H]1c1cccnc1 (relative stereo) [compound 170] | 0.052 µg/mL (≈ 0.123 µM) | 
41 | CCCCCCCCC[C@H]1S[C@H](c2cccnc2)N(CCN(C)C)C1=O (relative stereo) [Compound No. 27, 3-(2-dimethylaminoethyl)-5-(n-nonyl)-2-(3-pyridyl)thiazolidin-4-one] | 0.02 µg/mL (≈ 0.053 µM) | IC50 ([2]; PAF concentration 0.3 μM): 0.2 µg/mL (≈ 0.53 µM); IC50 ([2]; PAF concentration 1 μM): 0.4 µg/mL (≈ 1.06 µM); Percentage inhibition of PAF-induced blood concentration (maximum increase in hematocrit value) ([3]; dose 3 mg/kg iv): 87%
42 | CCCCCCCCC[C@H]1S[C@@H](c2cccnc2)N(CCCN(C)C)C1=O (relative stereo) [compound 108] | 0.7 µg/mL (≈ 1.79 µM) | IC50 ([2]; PAF concentration 0.3 μM): 1.8 µg/mL (≈ 4.6 µM); IC50 ([2]; PAF concentration 1 μM): 6 µg/mL (≈ 15.3 µM)
43 | CN(C)CCN1C(=O)C(CCOCCO[Si](C)(C)C(C)(C)C)SC1c1cccnc1 (centres unmarked) [compound 165] | 0.3 µg/mL (≈ 0.661 µM) | 
44 | C[C@H]1S[C@H](c2cccnc2)N(C)C1=O (relative stereo) [compound 3, 3,5-Dimethyl-2-(3-pyridyl)thiazolidin-4-one] | 3.5 µg/mL (≈ 16.8 µM) | IC50 ([2]; PAF concentration 0.3 μM): 6 µg/mL (≈ 28.8 µM); Percentage inhibition of PAF-induced blood concentration (maximum increase in hematocrit value) ([3]; dose 30 mg/kg iv): 58%
45 | CN(C)CCN1C(=O)[C@@H](CCCO[Si](C)(C)C(C)(C)C)S[C@@H]1c1cccnc1 (relative stereo) [compound 169] | 0.026 µg/mL (≈ 0.0614 µM) | 
46 | CCCCCC[C@H]1S[C@H](c2cccnc2)N(CCN(C)C)C1=O (relative stereo) [compound 73] | 0.07 µg/mL (≈ 0.209 µM) | 
47 | CCCCCCC[C@H]1S[C@H](c2cccnc2)N(CCN(C)C)C1=O (relative stereo) [compound 75] | 0.06 µg/mL (≈ 0.172 µM) | 
48 | CCCCCCCCC[C@H]1S[C@@H](c2cccnc2)N(CCN(C)C)C1=O (relative stereo) [compound 28, 3-(2-Dimethylaminoethyl)-5-(n-nonyl)-2-(3-pyridyl)thiazolidin-4-one] | 0.2 µg/mL (≈ 0.53 µM) | IC50 ([2]; PAF concentration 0.3 μM): 1.2 µg/mL (≈ 3.18 µM); IC50 ([2]; PAF concentration 1 μM): 2.5 µg/mL (≈ 6.62 µM); Percentage inhibition of PAF-induced blood concentration (maximum increase in hematocrit value) ([3]; dose 30 mg/kg iv): 92%
49 | C[C@H]1S[C@@H](c2cccnc2)N(C)C1=O (relative stereo) [Compound No. 2, 3,5-Dimethyl-2-(3-pyridyl)thiazolidin-4-one] | 4 µg/mL (≈ 19.2 µM) | IC50 ([2]; PAF concentration 0.3 μM): 5.5 µg/mL (≈ 26.4 µM); Percentage inhibition of PAF-induced blood concentration (maximum increase in hematocrit value) ([3]; dose 3 mg/kg iv): 53%
50 | C[C@H]1S[C@@H](c2cccnc2)N(C)C1=O (single isomer, unassigned) [compound 178, (+)-cis-3,5-dimethyl-2-(3-pyridyl)-thiazolidin-4-one] | 1.5 µg/mL (≈ 7.2 µM) | 
